Experimental data as given in ChEMBL document CHEMBL4270556, “Current progress on antioxidants incorporating the pyrazole core” (Eur J Med Chem, 2018).

Conditions: not given

Compound | Activity [%]
O=C1O[C@H]([C@@H](O)CO)C(O)=C1O | 92.7
CCOC(=O)c1sc(Nc2ccccc2)c(-c2nc3c(cnn3-c3ccccc3)c(=O)[nH]2)c1N | 92
Nc1n[nH]c(-c2ccccc2)c1-c1nc2c(cnn2-c2ccccc2)c(=O)[nH]1 | 92.3

Assay: Antioxidant activity assessed as ferric ion reducing activity after 20 mins in presence of potassium ferricyanide by FRAP assay relative to control
Format: functional
Set-up: scale not given: the % may be the effect or the level left
Conditions: not given

Compound | Activity [%]
COc1ccc(-c2nn(-c3ccccc3)cc2/C=C/C(=O)c2cccc(NC(=O)c3ccc(F)cc3)c2)cc1 | 44.4 to 55.5
O=C1O[C@H]([C@@H](O)CO)C(O)=C1O | 42.4
O=C(/C=C/c1cn(-c2ccccc2)nc1-c1ccc(Br)cc1)c1cccc(NC(=O)c2ccc(F)cc2)c1 | 44.4 to 55.5
Cc1ccc(-c2nn(-c3ccccc3)cc2/C=C/C(=O)c2cccc(NC(=O)c3ccc(F)cc3)c2)cc1 | 44.4 to 55.5
O=C(/C=C/c1cn(-c2ccccc2)nc1-c1ccccc1)c1cccc(NC(=O)c2ccc(F)cc2)c1 | 44.4 to 55.5
O=C(/C=C/c1cn(-c2ccccc2)nc1-c1ccc(Cl)cc1)c1cccc(NC(=O)c2ccc(F)cc2)c1 | 44.4 to 55.5

Assay: Antioxidant activity assessed as DPPH radical scavenging activity after 20 mins by UV absorbance method relative to control
Format: functional
Conditions: not given

Compound | Activity [%]
Clc1ncnc2c1ncn2CC1CC(c2ccccc2)=NN1c1ccccc1 (stereo not drawn) | 13 to 24
Cc1ccc(N2N=C(c3ccccc3)CC2Cn2cnc3c(N4CCCCC4)ncnc32)cc1 (stereo not drawn) | 13 to 24
Cc1ccc(-n2nc(-c3ccccc3)cc2Cn2cnc3c(N4CCCC4)ncnc32)cc1 | 43 to 44
Cc1ccc(N2N=C(c3ccccc3)CC2Cn2cnc3c(N4CCOCC4)ncnc32)cc1 (stereo not drawn) | 43 to 44
CC(C)(C)OC(=O)N1CCN(c2ncnc3c2ncn3CC2CC(c3ccccc3)=NN2c2ccccc2)CC1 (stereo not drawn) | 13 to 24
Cc1ccc(-n2nc(-c3ccccc3)cc2Cn2cnc3c(N4CCOCC4)ncnc32)cc1 | 62 to 79
Clc1ncnc2c1ncn2CC1CC(C2=NNC(Cn3cnc4c(Cl)ncnc43)C2)=NN1 (stereo not drawn) | 62 to 79
Cc1ccc(-n2nc(-c3ccccc3)cc2Cn2cnc3c(Cl)ncnc32)cc1 | 60
Cc1ccc(-n2nc(-c3ccccc3)cc2Cn2cnc3c(N4CCCCC4)ncnc32)cc1 | 62 to 79
Cc1ccc(N2N=C(c3ccccc3)CC2Cn2cnc3c(Cl)ncnc32)cc1 (stereo not drawn) | 20
c1ccc(C2=NN(c3ccccc3)C(Cn3cnc4c(N5CCCCC5)ncnc43)C2)cc1 (stereo not drawn) | 13 to 24
Cc1ccc(N2N=C(c3ccccc3)CC2Cn2cnc3c(N4CCCC4)ncnc32)cc1 (stereo not drawn) | 43 to 44
c1ccc(C2=NN(c3ccccc3)C(Cn3cnc4c(N5CCOCC5)ncnc43)C2)cc1 (stereo not drawn) | 13 to 24
c1ccc(C2=NN(c3ccccc3)C(Cn3cnc4c(N5CCCC5)ncnc43)C2)cc1 (stereo not drawn) | 13 to 24

Assay: Antioxidant activity assessed as DPPH radical scavenging activity at 10^-3 M relative to control
Format: functional
Conditions: not given

Compound | Activity [%]
NS(=O)(=O)c1ccc(-n2nc(-c3cccs3)cc2-c2cnn(-c3ccccc3)c2)cc1 | 12
NS(=O)(=O)c1ccc(N2N=C(c3cccs3)CC2c2cnn(-c3ccccc3)c2)cc1 (stereo not drawn) | 29
O=S(=O)(NC(=S)Nc1ccc(F)cc1)c1ccc(N2N=C(c3ccco3)CC2c2cnn(-c3ccccc3)c2)cc1 (stereo not drawn) | 27
NS(=O)(=O)c1ccc(N2N=C(c3ccco3)CC2c2cnn(-c3ccccc3)c2)cc1 (stereo not drawn) | 23
O=C(Nc1ccc(Cl)cc1)NS(=O)(=O)c1ccc(N2N=C(c3ccco3)CC2c2cnn(-c3ccccc3)c2)cc1 (stereo not drawn) | 16
O=C(Nc1ccccc1)NS(=O)(=O)c1ccc(N2N=C(c3ccco3)CC2c2cnn(-c3ccccc3)c2)cc1 (stereo not drawn) | 25

Assay: Antioxidant activity assessed as inhibition of DPPH radical at 100 ug/ml relative to control
Format: functional
Conditions: not given

Compound | inhibition [%]
CCOC(=O)c1c(C)nn(-c2ccc(C)cc2C)c1-c1ccc([N+](=O)[O-])cc1 | 22.2 to 49.9
CCOC(=O)c1c(C)nn(-c2cccc(Cl)c2)c1-c1ccc([N+](=O)[O-])cc1 | 22.2 to 49.9
CCOC(=O)c1c(C)nn(-c2cccc(Cl)c2)c1-c1cccc(Cl)c1 | 22.2 to 49.9
O=C1O[C@H]([C@@H](O)CO)C(O)=C1O | 28.6
CCOC(=O)c1c(C)nn(-c2cccc(Cl)c2)c1-c1ccc(Cl)cc1 | 22.2 to 49.9
CCOC(=O)c1c(C)nn(-c2ccc(C)cc2C)c1-c1ccc(N(C)C)cc1 | 22.2 to 49.9
CCOC(=O)c1c(C)nn(-c2ccccc2)c1-c1ccc(N(C)C)cc1 | 22.2 to 49.9
CCOC(=O)c1c(C)nn(-c2ccccc2)c1-c1ccc([N+](=O)[O-])cc1 | 22.2 to 49.9
CCOC(=O)c1c(C)nn(-c2cccc(Cl)c2)c1-c1ccc(N(C)C)cc1 | 22.2 to 49.9

Assay: Antioxidant activity assessed as DPPH radical scavenging activity at 30 to 50 ug/ml relative to control
Format: functional
Conditions: not given

Compound | Activity [%]
COc1ccc(C2C(c3ccc(OC)c(OC)c3)=NN(c3ccccc3)C2C#N)cc1 (stereo not drawn) | 32
COc1ccc(C2C(c3ccco3)=NN(c3ccccc3)C2C#N)cc1 (stereo not drawn) | < 45
COc1ccc(C2C(c3ccc(Br)cc3)=NN(c3ccccc3)C2C#N)cc1 (stereo not drawn) | < 60
COc1ccc(C2C(c3ccc(Cl)cc3)=NN(c3ccccc3)C2C#N)cc1 (stereo not drawn) | < 60
COc1ccc(C2C(c3ccccc3)=NN(c3ccccc3)C2C#N)cc1 (stereo not drawn) | < 45
COc1ccc(C2C(c3ccc(C#N)cc3)=NN(c3ccccc3)C2C#N)cc1 (stereo not drawn) | < 60
COc1ccc(C2=NN(c3ccccc3)C(C#N)C2c2ccc(OC)cc2)cc1 (stereo not drawn) | < 45
COc1ccc(C2C(c3ccc(F)cc3)=NN(c3ccccc3)C2C#N)cc1 (stereo not drawn) | < 60

Assay: Antioxidant activity assessed as DPPH radical scavenging activity at 10 ug/ml after 20 mins by UV absorbance method relative to control
Format: functional
Conditions: not given

Compound | Activity [%]
O=C(c1ccc(Cl)cc1)N1N=C(Cn2c3ccccc3c3nc4cc(Cc5ccc6nc(-c7ccccc7)c(-c7ccccc7)nc6c5)ccc4nc32)CC1c1ccc(F)cc1 (stereo not drawn) | 40.6
O=C(c1ccc(Cl)cc1)N1N=C(Cn2c3ccccc3c3nc4cc(Cc5ccc6nc(-c7ccccc7)c(-c7ccccc7)nc6c5)ccc4nc32)CC1c1ccc(Cl)cc1 (stereo not drawn) | 58.3
O=C1O[C@H]([C@@H](O)CO)C(O)=C1O | 40
O=C(c1ccccc1)N1N=C(Cn2c3ccccc3c3nc4cc(Cc5ccc6nc(-c7ccccc7)c(-c7ccccc7)nc6c5)ccc4nc32)CC1c1ccc(F)cc1 (stereo not drawn) | 45.5
COc1ccc(C2CC(Cn3c4ccccc4c4nc5cc(Cc6ccc7nc(-c8ccccc8)c(-c8ccccc8)nc7c6)ccc5nc43)=NN2C(=O)c2ccccc2)cc1 (stereo not drawn) | 50.5
COc1ccc(C2CC(Cn3c4ccccc4c4nc5cc(Cc6ccc7nc(-c8ccccc8)c(-c8ccccc8)nc7c6)ccc5nc43)=NN2C(=O)c2ccc(Cl)cc2)cc1 (stereo not drawn) | 59.4

Assay: Antioxidant activity assessed as DPPH radical scavenging activity at 100 mM after 30 mins relative to control
Format: functional
Conditions: not given

Compound | Activity [%]
O=C1O[C@H]([C@@H](O)CO)C(O)=C1O | 43
O=C(/C=C/c1cn(-c2ccccc2)nc1-c1ccc(Br)cc1)c1cccc(NC(=O)c2ccc(F)cc2)c1 | 36.8 to 42.3
Cc1ccc(-c2nn(-c3ccccc3)cc2/C=C/C(=O)c2cccc(NC(=O)c3ccc(F)cc3)c2)cc1 | 36.8 to 42.3
O=C(/C=C/c1cn(-c2ccccc2)nc1-c1ccc(F)cc1)c1cccc(NC(=O)c2ccc(F)cc2)c1 | 33.3
O=C(/C=C/c1cn(-c2ccccc2)nc1-c1ccccc1)c1cccc(NC(=O)c2ccc(F)cc2)c1 | 36.8 to 42.3
O=C(/C=C/c1cn(-c2ccccc2)nc1-c1cccc([N+](=O)[O-])c1)c1cccc(NC(=O)c2ccc(F)cc2)c1 | 33.3

Assay: Antioxidant activity assessed as inhibition of lipid peroxidation relative to control
Format: functional
Conditions: dose or concentration not given here

Compound | inhibition [%]
Clc1ncnc2c1ncn2CC1CC(c2ccccc2)=NN1c1ccccc1 (stereo not drawn) | 94
Cc1ccc(-n2nc(-c3ccccc3)cc2Cn2cnc3c(N4CCCC4)ncnc32)cc1 | 87
Cc1ccc(N2N=C(c3ccccc3)CC2Cn2cnc3c(N4CCOCC4)ncnc32)cc1 (stereo not drawn) | 5.8
CC(C)(C)OC(=O)N1CCN(c2ncnc3c2ncn3CC2CC(c3ccccc3)=NN2c2ccccc2)CC1 (stereo not drawn) | 54
Cc1ccc(-n2nc(-c3ccccc3)cc2Cn2cnc3c(N4CCOCC4)ncnc32)cc1 | 99
Cc1c(C)c2c(c(C)c1O)CCC(C)(C(=O)O)O2 (stereo not drawn) | 64
Cc1ccc(N2N=C(c3ccccc3)CC2Cn2cnc3c(Cl)ncnc32)cc1 (stereo not drawn) | 58
c1ccc(C2=NN(c3ccccc3)C(Cn3cnc4c(N5CCCCC5)ncnc43)C2)cc1 (stereo not drawn) | 72
Cc1ccc(N2N=C(c3ccccc3)CC2Cn2cnc3c(N4CCCC4)ncnc32)cc1 (stereo not drawn) | 49
c1ccc(C2=NN(c3ccccc3)C(Cn3cnc4c(N5CCOCC5)ncnc43)C2)cc1 (stereo not drawn) | 100
c1ccc(C2=NN(c3ccccc3)C(Cn3cnc4c(N5CCCC5)ncnc43)C2)cc1 (stereo not drawn) | 73

Assay: Antioxidant activity assessed as nitric oxide radical scavenging activity at 100 mM after 150 mins in presence of sodium nitroprusside relative to control
Format: functional
Conditions: not given

Compound | Activity [%]
COc1ccc(-c2nn(-c3ccccc3)cc2/C=C/C(=O)c2cccc(NC(=O)c3ccc(F)cc3)c2)cc1 | 32.4 to 77.9
O=C1O[C@H]([C@@H](O)CO)C(O)=C1O | 32.3
O=C(/C=C/c1cn(-c2ccccc2)nc1-c1ccc(Br)cc1)c1cccc(NC(=O)c2ccc(F)cc2)c1 | 32.4 to 77.9
Cc1ccc(-c2nn(-c3ccccc3)cc2/C=C/C(=O)c2cccc(NC(=O)c3ccc(F)cc3)c2)cc1 | 32.4 to 77.9
O=C(/C=C/c1cn(-c2ccccc2)nc1-c1ccc(F)cc1)c1cccc(NC(=O)c2ccc(F)cc2)c1 | 32.4 to 77.9
O=C(/C=C/c1cn(-c2ccccc2)nc1-c1ccccc1)c1cccc(NC(=O)c2ccc(F)cc2)c1 | 32.4 to 77.9
O=C(/C=C/c1cn(-c2ccccc2)nc1-c1ccc(Cl)cc1)c1cccc(NC(=O)c2ccc(F)cc2)c1 | 32.4 to 77.9
O=C(/C=C/c1cn(-c2ccccc2)nc1-c1cccc([N+](=O)[O-])c1)c1cccc(NC(=O)c2ccc(F)cc2)c1 | 32.4 to 77.9

Assay: Antioxidant activity assessed as radical scavenging activity at 30 to 50 ug/ml relative to control
Format: functional
Conditions: not given

Compound | Activity [%]
O=C1[C@H]2C(c3ccccc3)=NN(c3ccccc3)[C@H]2C(=O)N1c1ccc(Cl)cc1 | < 40
O=C1[C@H]2C(c3ccc(Cl)cc3)=NN(c3ccccc3)[C@H]2C(=O)N1c1ccccc1 | < 40
COc1ccc(C2=NN(c3ccccc3)[C@H]3C(=O)N(c4ccccc4)C(=O)[C@@H]23)cc1OC | < 55
O=C1[C@H]2C(c3ccccc3)=NN(c3ccccc3)[C@H]2C(=O)N1c1ccccc1 | < 55
COc1ccc(C2=NN(c3ccccc3)[C@H]3C(=O)N(c4ccccc4)C(=O)[C@@H]23)cc1 | < 55
COc1cc(C2=NN(c3ccccc3)[C@H]3C(=O)N(c4ccccc4)C(=O)[C@@H]23)cc(OC)c1OC | < 55
